Measured values published in ChEMBL document CHEMBL1201862, “PubChem BioAssay data set” (2004).
Active and inactive are the calls of the source.

Key:
[1] = Luminescence Cell-Based Dose Confirmation HTS to Identify Activators of 5'UTR Stem-Loop Driven Alpha-Synuclein mRNA Translation in H4 Neuroglioblastoma Cells. [Related pubchem assays: 1829 (Project Summary), 1814 (Primary HTS)]; assay type: functional
[2] = Luminescence Cell-Based Dose Response HTS to Identify Activators of Luciferase Translation or Activity in H4 […] Cells. [Related pubchem assays: 1829 (Project Summary), 1814 (Primary HTS)]; assay type: functional
[3] = system: H4; assay: Luminescence Cell-Based Dose Response HTS to Identify Activators of 5'UTR Stem-Loop Driven Prion Protein mRNA Translation in H4 Neuroglioblastoma Cells. [Related pubchem assays: 1829 (Project Summary), 1814 (Primary HTS)]; assay type: functional; settings: Homo sapiens
[4] = biological target: T1, Estrogen receptor (Homo sapiens, UniProt P03372); assay: potentiators of ERα–SRC-1 coactivator binding, dose response, biochemical, TR-FRET, ERα LBD (AID 737)
T1 sequence (P03372 whole entry): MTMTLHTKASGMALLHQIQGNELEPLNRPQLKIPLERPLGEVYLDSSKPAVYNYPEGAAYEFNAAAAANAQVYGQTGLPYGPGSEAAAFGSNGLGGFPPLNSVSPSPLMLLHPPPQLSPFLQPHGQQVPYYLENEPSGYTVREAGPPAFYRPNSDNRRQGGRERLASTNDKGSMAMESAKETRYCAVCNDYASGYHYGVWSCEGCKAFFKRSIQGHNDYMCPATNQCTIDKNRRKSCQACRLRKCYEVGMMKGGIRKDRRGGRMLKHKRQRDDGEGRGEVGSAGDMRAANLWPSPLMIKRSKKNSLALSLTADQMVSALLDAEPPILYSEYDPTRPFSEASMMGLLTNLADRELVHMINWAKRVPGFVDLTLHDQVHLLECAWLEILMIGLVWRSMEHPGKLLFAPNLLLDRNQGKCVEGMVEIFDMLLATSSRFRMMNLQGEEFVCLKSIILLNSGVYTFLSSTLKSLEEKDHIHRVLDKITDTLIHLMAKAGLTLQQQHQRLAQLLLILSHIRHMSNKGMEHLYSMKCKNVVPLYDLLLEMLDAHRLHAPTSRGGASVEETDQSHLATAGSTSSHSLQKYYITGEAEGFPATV

[5] = biological target: DNA dC->dU-editing enzyme APOBEC-3A (Homo sapiens, UniProt P31941); assay: Dose Response confirmation of small molecule APOBEC3A DNA Deaminase Inhibitors via a fluorescence-based single-stranded DNA deaminase assay. [Related pubchem assays (depositor defined):AID493011, AID493024]; assay type: functional
[6] = biological target: DNA dC->dU-editing enzyme APOBEC-3G (Homo sapiens, UniProt Q9HC16); assay type: functional;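 note: Dose-response counterscreen measuring inhibition of APOBEC3G DNA deaminase activity, run while confirming APOBEC3A inhibitors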
[7] = biological target: T2, Protein skinhead-1 (Caenorhabditis elegans, UniProt P34707); assay type: functional
T2 sequence (P34707 whole entry): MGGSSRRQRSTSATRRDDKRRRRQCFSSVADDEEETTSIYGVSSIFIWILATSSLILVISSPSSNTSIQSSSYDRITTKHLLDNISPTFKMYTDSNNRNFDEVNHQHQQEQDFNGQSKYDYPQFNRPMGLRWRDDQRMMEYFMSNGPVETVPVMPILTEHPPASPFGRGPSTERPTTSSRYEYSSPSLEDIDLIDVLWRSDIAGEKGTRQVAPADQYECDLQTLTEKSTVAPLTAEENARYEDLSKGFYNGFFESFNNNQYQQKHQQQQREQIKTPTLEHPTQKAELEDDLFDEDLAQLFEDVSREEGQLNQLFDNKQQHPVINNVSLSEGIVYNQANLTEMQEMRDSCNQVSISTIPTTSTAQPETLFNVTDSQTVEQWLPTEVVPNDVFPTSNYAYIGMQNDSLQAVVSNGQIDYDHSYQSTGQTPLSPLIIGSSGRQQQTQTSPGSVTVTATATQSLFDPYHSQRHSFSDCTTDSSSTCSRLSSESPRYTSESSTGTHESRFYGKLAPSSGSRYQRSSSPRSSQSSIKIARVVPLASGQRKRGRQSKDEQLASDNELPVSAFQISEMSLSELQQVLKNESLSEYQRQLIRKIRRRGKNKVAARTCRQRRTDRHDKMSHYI

[8] = LGR2 antagonists, dose response, cell-based, HEK293, CRE-luciferase reporter, cherry pick, set 2 (AID 743343); assay type: functional;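 note: transfected cells were stimulated with diluted bursicon conditioned medium after compound addition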
[9] = MC4R antagonists, dose response, counter-screen for LGR2 antagonist project, cell-based, plate reader, cherry pick (AID 743444); assay type: functional;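 note: transfected HEK 293 cells stimulated with alpha-MSH peptide; potency of inhibitors of the alpha-MSH evoked signal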
[10] = inhibitors of Bluetongue virus cytopathic effect, confirmation, arbovirus, BSR cells (AID 1250); assay type: functional;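 note: protection from viral cytopathic effect measured as cell viability by ATP luminescence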
[11] = system: Streptococcus sp. 'group A'; assay: growth inhibition of control SK(-) GAS strain, dose response, counter-screen for streptokinase expression inhibitor project, luminescence, kanamycin, BacTiterGlo, confirmation (AID 1900); assay type: functional, organism-based
[12] = biological target: T3, Streptokinase A (Streptococcus pyogenes serotype M1, UniProt P10520); assay: S. pyogenes streptokinase expression inhibitors, potency, dose response, plasminogen activation absorbance, OD405 (AID 1914); assay type: functional, Streptococcus pyogenes M1 GAS;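 note: secreted streptokinase activity via plasminogen activation per viability signal from cell pellet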
T3 sequence (P10520 whole entry): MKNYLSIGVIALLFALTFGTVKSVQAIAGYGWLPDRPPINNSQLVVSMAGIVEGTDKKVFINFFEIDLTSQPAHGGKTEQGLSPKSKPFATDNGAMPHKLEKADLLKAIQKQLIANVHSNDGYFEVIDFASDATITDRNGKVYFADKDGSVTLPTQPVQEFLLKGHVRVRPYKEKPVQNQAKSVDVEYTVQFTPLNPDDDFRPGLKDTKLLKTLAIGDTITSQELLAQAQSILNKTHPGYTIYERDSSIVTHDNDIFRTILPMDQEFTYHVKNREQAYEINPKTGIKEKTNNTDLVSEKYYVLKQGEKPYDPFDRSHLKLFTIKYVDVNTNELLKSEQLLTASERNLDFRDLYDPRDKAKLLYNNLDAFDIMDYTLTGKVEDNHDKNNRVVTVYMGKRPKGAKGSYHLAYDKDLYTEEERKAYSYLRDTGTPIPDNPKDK

[13] = biological target: T4, Mannose-6-phosphate isomerase (Homo sapiens, UniProt P34949); assay: inhibitors of human PMI, primary screen, biochemical, fluorescence intensity, coupled assay (AID 1209)
T4 sequence (P34949 whole entry): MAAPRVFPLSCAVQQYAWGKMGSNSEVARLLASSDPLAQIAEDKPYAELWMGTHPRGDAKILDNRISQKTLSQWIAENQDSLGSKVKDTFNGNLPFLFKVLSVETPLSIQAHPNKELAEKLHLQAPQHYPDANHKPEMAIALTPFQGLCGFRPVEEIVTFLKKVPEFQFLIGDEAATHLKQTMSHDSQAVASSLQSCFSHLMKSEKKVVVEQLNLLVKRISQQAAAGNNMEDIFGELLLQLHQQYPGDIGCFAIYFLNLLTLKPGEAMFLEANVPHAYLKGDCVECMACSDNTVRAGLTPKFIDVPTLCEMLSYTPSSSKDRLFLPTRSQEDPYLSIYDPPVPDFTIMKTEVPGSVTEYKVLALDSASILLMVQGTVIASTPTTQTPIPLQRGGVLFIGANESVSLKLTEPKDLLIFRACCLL

[14] = system: Streptococcus; assay: Group A Streptococcus viability loss, dose response, counter-screen for streptokinase expression inhibitor project, luminescence, BacTiterGlo (AID 1915); assay type: functional, organism-based;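 note: potency for reduction of bacterial viability or growth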
[15] = biological target: T4, Mannose-6-phosphate isomerase; assay: human PMI inhibitors, high substrate, primary screen, biochemical, fluorescence intensity, high mannose 6-phosphate (AID 1220)
[16] = biological target: T5, Aryl hydrocarbon receptor (Homo sapiens, UniProt P35869); assay: Luminescence-based cell-based high throughput dose response assay for activators of the Aryl Hydrocarbon Receptor (AHR). [Related pubchem assays: 2796 (Primary screen (AHR activators in singlicate)), 2845 (Confirmation screen (AHR activators in triplicate)), 434939 (Counterscreen (PXR activators in triplicate)), 2804 (Summary (AHR activators))]; assay type: ADME
T5 sequence (P35869 whole entry): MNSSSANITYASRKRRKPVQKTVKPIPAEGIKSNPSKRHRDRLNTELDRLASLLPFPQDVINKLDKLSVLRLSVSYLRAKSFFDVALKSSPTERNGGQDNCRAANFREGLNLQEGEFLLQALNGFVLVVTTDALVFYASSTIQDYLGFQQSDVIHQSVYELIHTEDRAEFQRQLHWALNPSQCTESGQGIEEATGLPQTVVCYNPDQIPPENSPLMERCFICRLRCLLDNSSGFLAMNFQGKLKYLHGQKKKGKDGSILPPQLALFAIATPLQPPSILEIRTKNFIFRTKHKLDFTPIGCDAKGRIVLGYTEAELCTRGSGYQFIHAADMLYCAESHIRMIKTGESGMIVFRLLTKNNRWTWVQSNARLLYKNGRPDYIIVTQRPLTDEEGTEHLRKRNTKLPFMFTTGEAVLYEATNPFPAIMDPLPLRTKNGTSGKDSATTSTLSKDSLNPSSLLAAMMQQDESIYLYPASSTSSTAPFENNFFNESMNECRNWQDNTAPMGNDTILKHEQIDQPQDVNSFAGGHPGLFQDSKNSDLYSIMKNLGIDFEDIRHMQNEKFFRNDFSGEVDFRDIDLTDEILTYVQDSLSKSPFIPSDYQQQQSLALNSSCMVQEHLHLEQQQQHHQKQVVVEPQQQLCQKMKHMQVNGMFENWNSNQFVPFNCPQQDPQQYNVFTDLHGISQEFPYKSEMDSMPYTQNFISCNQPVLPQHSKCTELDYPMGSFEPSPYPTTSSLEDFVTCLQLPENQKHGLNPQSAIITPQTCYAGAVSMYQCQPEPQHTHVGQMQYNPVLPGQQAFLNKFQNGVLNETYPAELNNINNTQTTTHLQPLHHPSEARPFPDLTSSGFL

[17] = THP-1 cell cytotoxicity, dose response, cytotoxicity control for Vif-APOBEC3G degradation inhibitor project, THP-1 cells (AID 1117359); assay type: functional; settings: Human immunodeficiency virus 1, THP-1
[18] = biological target: Photoreceptor-specific nuclear receptor (Homo sapiens, UniProt Q9Y5X4); assay type: functional;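 note: potency for compounds that break the NR2E3 corepressor complex and count as activators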
[19] = biological target: Peroxisome proliferator-activated receptor gamma/Nuclear receptor corepressor 2 (Homo sapiens, UniProt P37231+Q9Y618); assay type: functional
[20] = biological target: Genome polyprotein (Hepatitis C virus, UniProt Q2Q167); assay: HCV core protein dimerization inhibitors, dose response, biochemical, TR-FRET (AID 2159); parameters: species or system Hepacivirus hominis;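 note: blocks dimerization of HCV core protein measured by TR-FRET between tagged core106 pairs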
Genome polyprotein, sequence (Q2Q167 whole entry): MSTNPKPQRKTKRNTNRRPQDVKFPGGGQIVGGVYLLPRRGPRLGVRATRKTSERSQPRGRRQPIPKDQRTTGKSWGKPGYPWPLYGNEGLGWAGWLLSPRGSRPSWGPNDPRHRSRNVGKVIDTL

Peroxisome proliferator-activated receptor gamma/Nuclear receptor corepressor 2, sequence (P37231 whole entry): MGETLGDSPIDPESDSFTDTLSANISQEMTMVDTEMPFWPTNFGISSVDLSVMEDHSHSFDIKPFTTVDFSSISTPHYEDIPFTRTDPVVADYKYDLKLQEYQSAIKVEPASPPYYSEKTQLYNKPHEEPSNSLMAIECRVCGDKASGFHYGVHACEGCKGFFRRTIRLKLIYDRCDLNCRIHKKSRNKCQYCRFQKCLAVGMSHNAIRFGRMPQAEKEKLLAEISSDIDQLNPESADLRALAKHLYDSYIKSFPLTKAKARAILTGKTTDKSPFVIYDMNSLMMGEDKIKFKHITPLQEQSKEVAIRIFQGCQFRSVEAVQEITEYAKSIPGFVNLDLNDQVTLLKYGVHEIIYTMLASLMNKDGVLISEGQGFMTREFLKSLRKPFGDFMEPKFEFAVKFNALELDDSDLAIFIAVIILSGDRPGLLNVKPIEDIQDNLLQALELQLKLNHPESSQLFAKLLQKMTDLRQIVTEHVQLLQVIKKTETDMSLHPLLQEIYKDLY
Peroxisome proliferator-activated receptor gamma/Nuclear receptor corepressor 2, sequence (Q9Y618 whole entry): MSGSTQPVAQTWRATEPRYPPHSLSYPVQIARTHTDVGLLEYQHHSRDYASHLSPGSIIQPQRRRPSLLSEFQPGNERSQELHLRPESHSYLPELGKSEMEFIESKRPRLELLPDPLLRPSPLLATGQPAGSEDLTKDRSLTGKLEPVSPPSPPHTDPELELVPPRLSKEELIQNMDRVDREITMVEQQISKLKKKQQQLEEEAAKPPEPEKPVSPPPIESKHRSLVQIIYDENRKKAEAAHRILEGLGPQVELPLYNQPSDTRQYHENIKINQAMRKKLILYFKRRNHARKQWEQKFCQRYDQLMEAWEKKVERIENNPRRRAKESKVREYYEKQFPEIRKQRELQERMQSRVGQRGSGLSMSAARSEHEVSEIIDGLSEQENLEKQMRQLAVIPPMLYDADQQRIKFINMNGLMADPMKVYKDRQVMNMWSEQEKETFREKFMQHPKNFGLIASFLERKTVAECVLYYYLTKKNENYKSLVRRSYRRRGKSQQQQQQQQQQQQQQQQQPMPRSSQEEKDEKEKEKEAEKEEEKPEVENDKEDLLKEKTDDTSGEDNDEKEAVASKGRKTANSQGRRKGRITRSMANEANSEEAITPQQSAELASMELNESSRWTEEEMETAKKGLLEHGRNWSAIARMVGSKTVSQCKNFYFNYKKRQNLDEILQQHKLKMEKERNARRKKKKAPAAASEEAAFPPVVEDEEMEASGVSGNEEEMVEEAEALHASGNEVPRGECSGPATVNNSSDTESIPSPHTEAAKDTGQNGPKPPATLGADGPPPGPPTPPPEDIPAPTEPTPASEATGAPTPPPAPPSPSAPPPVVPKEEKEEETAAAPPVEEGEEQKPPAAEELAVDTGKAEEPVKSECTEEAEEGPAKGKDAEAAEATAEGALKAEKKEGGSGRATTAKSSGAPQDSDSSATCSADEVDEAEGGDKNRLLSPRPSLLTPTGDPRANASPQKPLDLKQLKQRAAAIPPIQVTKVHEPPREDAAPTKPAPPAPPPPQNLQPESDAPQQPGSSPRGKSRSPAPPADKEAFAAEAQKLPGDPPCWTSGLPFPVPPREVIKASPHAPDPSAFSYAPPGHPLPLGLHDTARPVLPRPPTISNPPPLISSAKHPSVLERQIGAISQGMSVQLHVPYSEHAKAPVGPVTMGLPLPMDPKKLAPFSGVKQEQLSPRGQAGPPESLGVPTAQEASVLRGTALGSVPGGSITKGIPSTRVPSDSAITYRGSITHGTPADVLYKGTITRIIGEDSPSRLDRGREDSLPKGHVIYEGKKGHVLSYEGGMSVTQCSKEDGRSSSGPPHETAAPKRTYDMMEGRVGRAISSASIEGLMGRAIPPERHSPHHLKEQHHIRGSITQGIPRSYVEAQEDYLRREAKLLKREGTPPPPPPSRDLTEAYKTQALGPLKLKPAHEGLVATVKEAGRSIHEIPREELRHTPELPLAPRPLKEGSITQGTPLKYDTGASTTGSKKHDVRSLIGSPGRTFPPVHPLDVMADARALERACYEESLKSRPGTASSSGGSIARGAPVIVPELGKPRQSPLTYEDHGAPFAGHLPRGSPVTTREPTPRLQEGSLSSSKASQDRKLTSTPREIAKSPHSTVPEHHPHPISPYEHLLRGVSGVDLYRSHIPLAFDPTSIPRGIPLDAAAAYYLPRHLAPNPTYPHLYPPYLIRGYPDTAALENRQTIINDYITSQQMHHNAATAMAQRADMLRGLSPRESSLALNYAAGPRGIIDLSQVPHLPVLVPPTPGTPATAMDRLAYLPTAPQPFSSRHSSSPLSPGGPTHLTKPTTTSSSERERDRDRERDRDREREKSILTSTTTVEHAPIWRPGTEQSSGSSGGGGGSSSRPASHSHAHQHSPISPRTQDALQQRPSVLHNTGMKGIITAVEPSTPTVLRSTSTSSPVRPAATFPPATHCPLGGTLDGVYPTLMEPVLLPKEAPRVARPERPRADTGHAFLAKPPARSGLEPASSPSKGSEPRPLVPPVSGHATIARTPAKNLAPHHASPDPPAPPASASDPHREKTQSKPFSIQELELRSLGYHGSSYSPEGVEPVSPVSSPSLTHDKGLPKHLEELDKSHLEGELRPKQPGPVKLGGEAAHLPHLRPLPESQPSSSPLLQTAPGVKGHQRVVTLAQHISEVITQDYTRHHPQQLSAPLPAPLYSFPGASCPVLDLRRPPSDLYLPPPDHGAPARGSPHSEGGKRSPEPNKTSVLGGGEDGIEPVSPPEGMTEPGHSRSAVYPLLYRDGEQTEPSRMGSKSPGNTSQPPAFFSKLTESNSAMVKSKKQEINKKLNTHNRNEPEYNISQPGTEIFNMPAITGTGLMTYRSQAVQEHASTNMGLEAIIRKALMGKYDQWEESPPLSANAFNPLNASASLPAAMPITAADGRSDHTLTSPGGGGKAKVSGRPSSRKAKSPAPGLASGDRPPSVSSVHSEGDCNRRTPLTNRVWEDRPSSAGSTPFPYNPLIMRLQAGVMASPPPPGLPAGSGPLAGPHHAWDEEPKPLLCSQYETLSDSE
Photoreceptor-specific nuclear receptor, sequence (Q9Y5X4 whole entry): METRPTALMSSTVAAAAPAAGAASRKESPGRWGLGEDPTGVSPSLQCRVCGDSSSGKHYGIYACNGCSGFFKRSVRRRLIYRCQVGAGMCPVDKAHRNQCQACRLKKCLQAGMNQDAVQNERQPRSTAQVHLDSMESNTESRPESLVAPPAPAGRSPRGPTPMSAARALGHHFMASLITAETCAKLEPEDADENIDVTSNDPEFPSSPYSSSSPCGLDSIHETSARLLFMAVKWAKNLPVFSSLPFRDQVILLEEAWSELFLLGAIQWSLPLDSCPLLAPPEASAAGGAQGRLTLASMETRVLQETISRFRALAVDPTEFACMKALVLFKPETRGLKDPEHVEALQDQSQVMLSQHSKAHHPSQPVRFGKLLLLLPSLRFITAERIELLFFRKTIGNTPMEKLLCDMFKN
DNA dC->dU-editing enzyme APOBEC-3A, sequence (P31941 whole entry): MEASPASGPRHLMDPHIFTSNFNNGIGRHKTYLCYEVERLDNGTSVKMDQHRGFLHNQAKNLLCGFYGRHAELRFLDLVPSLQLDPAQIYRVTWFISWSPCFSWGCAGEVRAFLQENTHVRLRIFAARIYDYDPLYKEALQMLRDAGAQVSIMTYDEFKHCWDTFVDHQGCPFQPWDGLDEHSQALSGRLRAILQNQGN
DNA dC->dU-editing enzyme APOBEC-3G, sequence (Q9HC16 whole entry): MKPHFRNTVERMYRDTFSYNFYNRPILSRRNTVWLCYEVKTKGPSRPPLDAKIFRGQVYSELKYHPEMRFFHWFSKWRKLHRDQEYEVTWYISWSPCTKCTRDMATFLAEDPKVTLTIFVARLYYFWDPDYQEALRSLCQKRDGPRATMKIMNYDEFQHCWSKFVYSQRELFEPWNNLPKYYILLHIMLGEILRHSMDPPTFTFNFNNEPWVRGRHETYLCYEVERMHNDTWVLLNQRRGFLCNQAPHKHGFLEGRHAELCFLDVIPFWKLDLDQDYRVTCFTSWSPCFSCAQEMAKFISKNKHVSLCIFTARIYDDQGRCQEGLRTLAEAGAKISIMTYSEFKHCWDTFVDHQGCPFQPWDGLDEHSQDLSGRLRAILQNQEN

SMILES: CCn1c(SCC(=O)Nc2cccc(F)c2)nnc1-c1cc2cc(Br)ccc2o1
- EC50 [1]: > 120 µM (not active)
- EC50 [2]: 10.8 µM (active)
- EC50 [3]: > 120 µM (not active)
- EC50 [4]: 11.1 µM (active)
- IC50 [5]: 2.82 µM (active)
- IC50 [6]: 5.3 µM (active)

SMILES: O=C(Nc1cccnc1)c1cc(-c2ccc3c(c2)OCO3)on1
- EC50 [4]: 12.9 µM (not active)
- IC50 [7]: > 100 µM (inactive)
- AC50 [8]: 5.5 µM (active)
- AC50 [9]: 5.56 µM (active)

SMILES: O=c1oc(-c2cccs2)nc2scc(-c3cccs3)c12
- IC50 [10]: 24.2 µM (active)

SMILES: Cc1ccc(/N=C/c2cccc(O)c2O)c(C)c1
- EC50 [11]: > 150 µM (not active)
- EC50 [12]: > 150 µM (not active)
- IC50 [13]: 23.3 µM (active)
- EC50 [14]: 7.41 µM (active)
- IC50 [15]: 14 µM (active)

SMILES: Cc1cc(Nc2ccc(Br)cc2)n2nc(C)nc2n1
- EC50 [16]: 0.117 µM (active)
- CC50 [17]: > 40 µM (active)

SMILES: COCCCN1C(=O)C(O)=C(C(=O)c2ccc(C)o2)C1c1cccc(Br)c1 (stereo unspecified)
- IC50 [18]: > 39.8 µM (not active)
- IC50 [19]: 11.1 µM (not active)

SMILES: COc1ccc(-n2c(-c3ccc(Br)cc3)nc(=S)c3c2CCCC3)cc1
- IC50 [20]: > 49.8 µM (not active)
